Measured values reported in patent US8957078B2, “Compounds useful as inhibitors of ATR kinase” (Vertex Pharmaceuticals Incorporated, priority 2013, dated 2015).

Experiments:
[1] = molecular target: T1, ATR kinase (full-length ATR) (Homo sapiens, UniProt Q13535); test: ATR Inhibition Assay (radioactive-phosphate incorporation); type: biochemical; conditions: Ki(app); 5 nM full-length ATR, 10 μM ATP, 800 μM target peptide, 25° C.
T1 construct: in the presence of 5 nM full-length ATR
Procedure: Compounds were screened for their ability to inhibit ATR kinase using a radioactive-phosphate incorporation assay. Assays were carried out in a mixture of 50 mM Tris/HCl (pH 7.5), 10 mM MgCl2 and 1 mM DTT. Final substrate concentrations were 10 μM [γ-33P]ATP (3 mCi 33P ATP/mmol ATP, Perkin Elmer) and 800 μM target peptide (ASELPASQPQPFSAKKK (SEQ. ID NO: 1)).
Assays were carried out at 25° C. in the presence of 5 nM full-length ATR. An assay stock buffer solution was prepared containing all of the reagents listed above, with the exception of ATP and the test compound of interest. 13.5 μL of the stock solution was placed in a 96 well plate followed by addition of 2 μL of DMSO stock containing serial dilutions of the test compound (typically starting from a final concentration of 15 μM with 3-fold serial dilutions) in duplicate (final DMSO concentration 7%). The plate was pre-incubated for 10 minutes at 25° C. and the reaction initiated by addition of 15 μL [γ-33P]ATP (final concentration 10 μM).
The reaction was stopped after […] by the addition of 30 μL 0.1M phosphoric acid containing 2 mM ATP. A multiscreen phosphocellulose filter 96-well plate (Millipore, Cat no. MAPHN0B50) was pretreated with 100 μL 0.2M phosphoric acid prior to the addition of 45 μL of the stopped assay mixture. The plate was washed with 5×200 μL 0.2M phosphoric acid. After drying, 100 μL Optiphase ‘SuperMix’ liquid scintillation cocktail (Perkin Elmer) was added to the well prior to scintillation counting (1450 Microbeta Liquid Scintillation Counter, Wallac).
After removing mean background values for all of the data points, Ki(app) data were calculated from non-linear regression analysis of the initial rate data using the Prism software package (GraphPad Prism version 3.0cx for Macintosh, GraphPad Software, San Diego Calif., USA).

[2] = test system: HCT116 colorectal cancer cells; test: Cisplatin Sensitization Assay (96 h cell viability MTS); type: cell-based; conditions: concentration of compound required to reduce the IC50 of Cisplatin alone by at least 3-fold; HCT116, 96 h MTS
Procedure: Compounds can be screened for their ability to sensitize HCT116 colorectal cancer cells to Cisplatin using a 96 h cell viability (MTS) assay. […] Compounds and Cisplatin are then both added simultaneously to the cell media in 2-fold serial dilutions from a top final concentration of 10 μM as a full matrix of concentrations in a final cell volume of 200 μl, and the cells are then incubated at 37° C. in 5% CO2. After 96 h, 40 μl of MTS reagent (Promega G358a) is added to each well and the cells are incubated for 1 h at 37° C. in 5% CO2. Finally, absorbance is measured at 490 nm using a SpectraMax Plus 384 reader (Molecular Devices) and the concentration of compound required to reduce the IC50 of Cisplatin alone by at least 3-fold (to 1 decimal place) can be reported.

T1 sequence (Q13535 whole entry): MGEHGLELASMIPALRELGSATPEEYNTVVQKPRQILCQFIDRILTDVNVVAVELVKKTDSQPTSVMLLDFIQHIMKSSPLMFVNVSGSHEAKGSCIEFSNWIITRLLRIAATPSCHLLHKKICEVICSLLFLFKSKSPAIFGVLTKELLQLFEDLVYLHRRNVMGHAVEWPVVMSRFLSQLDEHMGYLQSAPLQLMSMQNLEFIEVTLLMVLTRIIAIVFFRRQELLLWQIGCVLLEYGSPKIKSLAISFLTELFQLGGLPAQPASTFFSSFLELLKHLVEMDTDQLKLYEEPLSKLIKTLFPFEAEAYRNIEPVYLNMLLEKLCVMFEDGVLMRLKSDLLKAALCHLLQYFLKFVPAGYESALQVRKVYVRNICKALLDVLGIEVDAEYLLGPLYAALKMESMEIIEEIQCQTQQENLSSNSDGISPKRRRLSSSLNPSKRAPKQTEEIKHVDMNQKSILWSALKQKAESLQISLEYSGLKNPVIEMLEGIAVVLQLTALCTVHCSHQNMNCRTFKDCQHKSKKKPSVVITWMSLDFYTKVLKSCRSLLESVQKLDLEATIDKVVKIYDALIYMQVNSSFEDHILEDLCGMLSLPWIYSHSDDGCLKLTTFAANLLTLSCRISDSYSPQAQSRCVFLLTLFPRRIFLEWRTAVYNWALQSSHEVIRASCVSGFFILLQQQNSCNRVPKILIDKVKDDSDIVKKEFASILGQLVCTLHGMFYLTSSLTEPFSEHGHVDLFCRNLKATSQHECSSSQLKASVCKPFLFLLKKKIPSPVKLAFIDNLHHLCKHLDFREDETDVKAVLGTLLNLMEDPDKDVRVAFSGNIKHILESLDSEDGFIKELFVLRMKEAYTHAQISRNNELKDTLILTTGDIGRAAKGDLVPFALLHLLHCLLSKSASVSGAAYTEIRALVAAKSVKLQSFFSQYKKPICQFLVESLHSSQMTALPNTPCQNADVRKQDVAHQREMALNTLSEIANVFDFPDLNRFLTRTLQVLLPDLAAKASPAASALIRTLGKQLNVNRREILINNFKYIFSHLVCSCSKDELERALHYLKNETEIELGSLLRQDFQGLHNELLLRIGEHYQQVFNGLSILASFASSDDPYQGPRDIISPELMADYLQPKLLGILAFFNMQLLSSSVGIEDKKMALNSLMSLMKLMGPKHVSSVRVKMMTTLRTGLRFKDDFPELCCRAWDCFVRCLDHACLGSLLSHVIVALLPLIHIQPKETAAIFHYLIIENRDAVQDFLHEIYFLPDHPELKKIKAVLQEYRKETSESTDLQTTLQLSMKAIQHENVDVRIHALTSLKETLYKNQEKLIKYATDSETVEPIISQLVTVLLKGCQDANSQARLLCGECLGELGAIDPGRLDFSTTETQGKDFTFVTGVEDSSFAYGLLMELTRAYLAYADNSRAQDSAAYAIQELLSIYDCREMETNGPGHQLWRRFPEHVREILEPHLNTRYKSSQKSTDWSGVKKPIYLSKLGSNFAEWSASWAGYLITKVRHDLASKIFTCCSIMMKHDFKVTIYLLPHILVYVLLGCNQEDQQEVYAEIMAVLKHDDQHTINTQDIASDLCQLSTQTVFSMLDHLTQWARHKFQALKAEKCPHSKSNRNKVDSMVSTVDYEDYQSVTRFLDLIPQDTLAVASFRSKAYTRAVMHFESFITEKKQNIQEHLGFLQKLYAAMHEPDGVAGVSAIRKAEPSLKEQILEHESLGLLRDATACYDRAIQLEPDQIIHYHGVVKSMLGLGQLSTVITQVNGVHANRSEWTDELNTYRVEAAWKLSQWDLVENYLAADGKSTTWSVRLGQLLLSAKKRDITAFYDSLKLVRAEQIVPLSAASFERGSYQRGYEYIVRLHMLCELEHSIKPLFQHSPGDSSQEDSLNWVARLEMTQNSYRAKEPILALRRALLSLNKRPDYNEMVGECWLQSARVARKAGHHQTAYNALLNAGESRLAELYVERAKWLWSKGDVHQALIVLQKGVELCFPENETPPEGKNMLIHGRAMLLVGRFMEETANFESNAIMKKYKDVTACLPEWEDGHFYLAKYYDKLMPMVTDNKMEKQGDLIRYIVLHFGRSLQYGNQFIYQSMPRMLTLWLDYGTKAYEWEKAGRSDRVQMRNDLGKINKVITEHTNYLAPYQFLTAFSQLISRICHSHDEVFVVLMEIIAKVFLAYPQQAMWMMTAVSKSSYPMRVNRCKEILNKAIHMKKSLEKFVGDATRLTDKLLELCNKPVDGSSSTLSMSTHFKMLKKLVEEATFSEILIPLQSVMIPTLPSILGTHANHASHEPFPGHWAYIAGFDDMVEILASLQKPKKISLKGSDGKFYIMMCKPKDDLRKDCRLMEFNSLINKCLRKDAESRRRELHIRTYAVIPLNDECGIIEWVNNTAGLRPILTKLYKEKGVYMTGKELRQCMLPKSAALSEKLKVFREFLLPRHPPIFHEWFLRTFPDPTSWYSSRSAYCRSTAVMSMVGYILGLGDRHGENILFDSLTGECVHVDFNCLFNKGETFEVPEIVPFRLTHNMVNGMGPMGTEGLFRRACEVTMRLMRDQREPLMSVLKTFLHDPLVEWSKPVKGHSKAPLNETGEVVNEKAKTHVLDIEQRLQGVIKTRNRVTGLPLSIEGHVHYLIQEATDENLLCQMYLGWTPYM

| SMILES | Ki [1] [nM] | Cisplatin Sensitization Assay [2] |
| --- | --- | --- |
| Nc1nn2cc(F)cnc2c1C(=O)Nc1cnncc1N1CCCCC1 [I-B-9, 2-amino-6-fluoro-N-(5-(piperidin-1-yl)pyridazin-4-yl)pyrazolo[1,5-a]pyrimidine-3-carboxamide] | 10 to 1000 | +++ (Compounds with a Cisplatin sensitization value of <0.02 μM are marked with “+++.”) |
| CC(C)(C)N1CCN(C(=O)C2CCN(c3cnncc3NC(=O)c3c(N)nn4cc(F)cnc34)CC2)CC1 [I-B-10, 2-amino-N-(5-(4-(4-(tert-butyl)piperazine-1-carbonyl)piperidin-1-yl)pyridazin-4-yl)-6-fluoropyrazolo[1,5-a]pyrimidine-3-carboxamide] | 10 to 1000 | ++ (Compounds with a Cisplatin sensitization value >0.02 μM but <0.2 μM are marked with “++.”) |
| CN1CCN(CC2CCN(c3cnncc3NC(=O)c3c(N)nn4cc(F)cnc34)CC2)CC1 [I-B-11, 2-amino-6-fluoro-N-(5-(4-((4-methylpiperazin-1-yl)methyl)piperidin-1-yl)pyridazin-4-yl)pyrazolo[1,5-a]pyrimidine-3-carboxamide] | 10 to 1000 | ++ (Compounds with a Cisplatin sensitization value >0.02 μM but <0.2 μM are marked with “++.”) |
| Nc1nn2cc(F)cnc2c1C(=O)Nc1cnncc1N1CCOCC1 [I-B-12, 2-amino-6-fluoro-N-(5-morpholinopyridazin-4-yl)pyrazolo[1,5-a]pyrimidine-3-carboxamide] | 10 to 1000 | ++ (Compounds with a Cisplatin sensitization value >0.02 μM but <0.2 μM are marked with “++.”) |
| Cc1nncc(NC(=O)c2c(N)nn3cc(F)cnc23)c1N1CCC(C(=O)N2CCN(C)CC2)CC1 [I-B-14, 2-amino-6-fluoro-N-(6-methyl-5-(4-(4-methylpiperazine-1-carbonyl)piperidin-1-yl)pyridazin-4-yl)pyrazolo[1,5-a]pyrimidine-3-carboxamide] | 10 to 1000 | +++ (Compounds with a Cisplatin sensitization value of <0.02 μM are marked with “+++.”) |
| Cn1cncc1-c1cnncc1NC(=O)c1c(N)nn2cc(F)cnc12 [I-B-15, 2-amino-6-fluoro-N-(5-(1-methyl-1H-imidazol-5-yl)pyridazin-4-yl)pyrazolo[1,5-a]pyrimidine-3-carboxamide] | 10 to 1000 | ++ (Compounds with a Cisplatin sensitization value >0.02 μM but <0.2 μM are marked with “++.”) |
| Nc1nn2cc(F)cnc2c1C(=O)Nc1cnncc1N1CCC(F)CC1 [I-B-20, 2-amino-6-fluoro-N-(5-(4-fluoropiperidin-1-yl)pyridazin-4-yl)pyrazolo[1,5-a]pyrimidine-3-carboxamide] | 10 to 1000 | +++ (Compounds with a Cisplatin sensitization value of <0.02 μM are marked with “+++.”) |
| Nc1nn2cc(F)cnc2c1C(=O)Nc1cnncc1N1CCC(C(=O)N2CC(F)(F)C2)CC1 [I-B-21, 2-amino-N-(5-(4-(3,3-difluoroazetidine-1-carbonyl)piperidin-1-yl)pyridazin-4-yl)-6-fluoropyrazolo[1,5-a]pyrimidine-3-carboxamide] | 10 to 1000 | +++ (Compounds with a Cisplatin sensitization value of <0.02 μM are marked with “+++.”) |
| CS(=O)(=O)C1CCN(c2cnncc2NC(=O)c2c(N)nn3cc(F)cnc23)CC1 [I-B-23, 2-amino-6-fluoro-N-(5-(4-(methylsulfonyl)piperidin-1-yl)pyridazin-4-yl)pyrazolo[1,5-a]pyrimidine-3-carboxamide] | 10 to 1000 | ++ (Compounds with a Cisplatin sensitization value >0.02 μM but <0.2 μM are marked with “++.”) |
| CN1CCN(c2cnccc2NC(=O)c2c(N)nn3cc(F)cnc23)CC1 [I-C-2, 2-amino-6-fluoro-N-(3-(4-methylpiperazin-1-yl)pyridin-4-yl)pyrazolo[1,5-a]pyrimidine-3-carboxamide] | 10 to 1000 | ++ (Compounds with a Cisplatin sensitization value >0.02 μM but <0.2 μM are marked with “++.”) |
| CN1CCN(C(=O)C2CCN(c3cnccc3NC(=O)c3c(N)nn4cc(F)cnc34)CC2)CC1 [I-C-3, 2-amino-6-fluoro-N-(3-(4-(4-methylpiperazine-1-carbonyl)piperidin-1-yl)pyridin-4-yl)pyrazolo[1,5-a]pyrimidine-3-carboxamide] | 10 to 1000 | ++ (Compounds with a Cisplatin sensitization value >0.02 μM but <0.2 μM are marked with “++.”) |

Second part, led by results:

| Ki [1] [nM] | SMILES | Cisplatin Sensitization Assay [2] |
| --- | --- | --- |
| 10 to 1000 | CN1CCN(c2cnncc2NC(=O)c2c(N)nn3cc(F)cnc23)CC1 [I-B-1, 2-amino-6-fluoro-N-(5-(4-methylpiperazin-1-yl)pyridazin-4-yl)pyrazolo[1,5-a]pyrimidine-3-carboxamide] | ++ (Compounds with a Cisplatin sensitization value >0.02 μM but <0.2 μM are marked with “++.”) |
| 10 to 1000 | Nc1nn2cc(F)cnc2c1C(=O)Nc1cnncc1N1CCN(C2COC2)CC1 [I-B-2, 2-amino-6-fluoro-N-(5-(4-(oxetan-3-yl)piperazin-1-yl)pyridazin-4-yl)pyrazolo[1,5-a]pyrimidine-3-carboxamide] | ++ (Compounds with a Cisplatin sensitization value >0.02 μM but <0.2 μM are marked with “++.”) |
| 10 to 1000 | Nc1nn2cc(F)cnc2c1C(=O)Nc1cnncc1N1CCN(C2CCOCC2)CC1 [I-B-3, 2-amino-6-fluoro-N-(5-(4-(tetrahydro-2H-pyran-4-yl)piperazin-1-yl)pyridazin-4-yl)pyrazolo[1,5-a]pyrimidine-3-carboxamide] | ++ (Compounds with a Cisplatin sensitization value >0.02 μM but <0.2 μM are marked with “++.”) |
| 10 to 1000 | Cc1ncccc1-c1cnncc1NC(=O)c1c(N)nn2cc(F)cnc12 [I-B-4, 2-amino-6-fluoro-N-(5-(2-methylpyridin-3-yl)pyridazin-4-yl)pyrazolo[1,5-a]pyrimidine-3-carboxamide] | +++ (Compounds with a Cisplatin sensitization value of <0.02 μM are marked with “+++.”) |
| 10 to 1000 | CN1CCN(C(=O)C2CCN(c3cnncc3NC(=O)c3c(N)nn4cc(F)cnc34)CC2)CC1 [I-B-5, 2-amino-6-fluoro-N-(5-(4-(4-methylpiperazine-1-carbonyl)piperidin-1-yl)pyridazin-4-yl)pyrazolo[1,5-a]pyrimidine-3-carboxamide] | ++ (Compounds with a Cisplatin sensitization value >0.02 μM but <0.2 μM are marked with “++.”) |
| 10 to 1000 | Nc1nn2cc(F)cnc2c1C(=O)Nc1cnncc1N1CCC(CN2CCC(F)(F)C2)CC1 [I-B-6, 2-amino-N-(5-(4-((3,3-difluoropyrrolidin-1-yl)methyl)piperidin-1-yl)pyridazin-4-yl)-6-fluoropyrazolo[1,5-a]pyrimidine-3-carboxamide] | +++ (Compounds with a Cisplatin sensitization value of <0.02 μM are marked with “+++.”) |
| 10 to 1000 | CN1CCN(Cc2ccc(-c3cnncc3NC(=O)c3c(N)nn4cc(F)cnc34)cc2)CC1 [I-B-7, 2-amino-6-fluoro-N-(5-(4-((4-methylpiperazin-1-yl)methyl)phenyl)pyridazin-4-yl)pyrazolo[1,5-a]pyrimidine-3-carboxamide] | +++ (Compounds with a Cisplatin sensitization value of <0.02 μM are marked with “+++.”) |
| 10 to 1000 | Nc1nn2cc(F)cnc2c1C(=O)Nc1cnncc1N1CCC(CN2CCOCC2)CC1 [I-B-8, 2-amino-6-fluoro-N-(5-(4-(morpholinomethyl)piperidin-1-yl)pyridazin-4-yl)pyrazolo[1,5-a]pyrimidine-3-carboxamide] | ++ (Compounds with a Cisplatin sensitization value >0.02 μM but <0.2 μM are marked with “++.”) |
| < 10 | Nc1nn2cc(F)cnc2c1C(=O)Nc1cnncc1N1CCC(C(=O)N2CC(F)C2)CC1 [I-B-22, 2-amino-6-fluoro-N-(5-(4-(3-fluoroazetidine-1-carbonyl)piperidin-1-yl)pyridazin-4-yl)pyrazolo[1,5-a]pyrimidine-3-carboxamide] | +++ (Compounds with a Cisplatin sensitization value of <0.02 μM are marked with “+++.”) |
